Assay results as given in patent US20170320939A1, “COLL2-1 PEPTIDE AND ITS NITRATED FORM AS THERAPEUTIC TARGETS FOR OSTEOARTHRITIS TREATMENT” (Université de Liège, priority 2014, published 2017).

Legend:
[1] = test system: OA synovial fibroblast cells; test: Intracellular H2O2 production in OA synovial fibroblast cells; assay type: cell-based, human
Description: 1.1 Patients. Synovial tissue samples were obtained from 10 patients (8 women, 2 man; mean age 70 +/−6 years) with osteoarthritis (OA) of the knee at the time of total knee joint replacement surgery. All the subjects provided their informed consent.
1.2 Isolation and culture of synovial cells. Synovium biopsies were digested is with collagenase from Clostridium histolyticum, Type IA (1 mg/ml) (Sigma-Aldrich, Saint-Louis, USA) and 0.25% trypsin (Sigma Aldrich, Saint Louis, USA) with 0.68 mM EDTA in Tris buffer 0.1M, pH 7.4 in complete medium (CM) (DMEM (Dulbecco's Modified Eagle's Medium) Low Glucose supplemented with 10 mM HEPES, 100 U/ml penicillin, 100 μg/ml streptomycin, 2 mM glutamine and 10% fetal calf serum (Lonza, Verviers, Belgium)) for 1 hour at 37° C. The cells suspensions were passed through a 70-μm filter to remove any undigested tissue. The filtered cells suspensions were then collected by centrifugation at 800 g and were cultured in culture flasks. After 24 hours, medium was changed to eliminate non adherent cells. Synovial fibroblasts cells (SFC) were used after three passages.
1.3 Treatment of synovial fibroblast cells. Cells were seeded into a six-well plate at the density of 2×10^5 cells/well in 2 ml of CM. When the cells reached confluence, the CM was replaced with 1% serum medium for 24 h to keep the cells quiescent. Cells were incubated for 24 hours with or without peptides Coll2-1 (^108HRGYPGLDG^116; 0.45 and 4.5 nmol) or Coll2-1NO2 (^108HRGYPGLDG-NO2^116; 4 and 40 pmol) at a range of concentrations found in the blood of osteoarthritic patients.
1.5 Intracellular H2O2 and O2^∘^− productions. Levels of intracellular superoxide anion (O2^∘^−) and hydrogen peroxide (H2O2) were assessed spectrofluorimetrically by oxidation of specific probes: dihydroethidium (Molecular Probes, Leiden, The Netherlands) and H2DCFH-DA (Molecular Probes, Leiden, The Netherlands) respectively. Synovial cells seeded on 96-well plates (8×10^3 cells per well) were washed once with phosphate-buffered saline and then incubated with 50 μL of phosphate-buffered saline containing either 250 μM dihydroethidium or 200 μM H2DCFH-DA. The fluorescence intensity was measured every hour for 6 hours. The levels of O2^∘^− or H2O2 are expressed in arbitrary unit/living cell. The numbers of adherent cells were measured by crystal violet assay.

female Lewis rats = test: In-vivo study, S.C. injection compared to CIA (collagen induced arthritis) model; settings: for arthritis visual score, difference versus saline (Group 7): D17
Description: An in-vivo study was performed to evaluate the potential immunizing effect of Coll2-1 peptide. This effect was evaluated in comparison with two validated models of rheumatoid arthritis: CIA (Collagen induced arthritis) and SCW (Streptococcal cell walls). The peptide has been injected once subcutaneous, at the base of the tail (S.C.—evaluation of systemic inflammation) or intra-articular (I.A.—evaluation of mono-articular inflammation) in female Lewis rats. Naïve controls (saline) were considered. Animals were euthanized 21 or 28 days after injection.
All animals (n=108 females; 96.0-129.7 gr) included in the study were identified by a unique chip. They were randomly distributed into 8 study groups (n=16/group except nave controls n=6/group, n=8/each time point) before induction (DO) based on their body weight (FIG. 1). • Injected controls (2 groups) • Group 1: bovin type II collagen (CIA)—S.C. (n=16) • Group 2: streptococcal cell wail (SCW)—I.A. (n=16) • Test groups (4 groups) • Group 3: Peptide dose 200 μg/100 μl—S.C. (n=16) • Group 4: Peptide dose 20 μg/100 μl—S.C. (n=16) • Group 5: Peptide dose 5 μg/50 μl—I.A. (n=16) • Group 6: Peptide dose 0.5 μg/50 μl—I.A. (n=16) • Naïve controls (2 groups) • Group 7: saline S.C. (n=6) • Group 8: saline I.A. (n=6)
Two injection ways were chosen to evaluate the potential effect of the peptide: intra-articular (I.A.) and subcutaneous (S.C.), two route classically used in the art.
Coll2-1 peptide was administered either I.A. under a 50 μL volume into the right knee or S.C. under a 100 μL volume at the base of the tail.
SCW was administered I.A. into the right knee under a 50 μL volume. Bovine type II collagen (CIA) was administered under 100 μL volume at the base of the tail.
Two doses of the Coll2-1 peptide were tested in both conditions.
It was administered S.C. at 200 and 20 μg under 100 μL.
Coll2-1 peptide was administered once (DO).
Joint was considered arthritic when significant signs of redness and/or swelling was noted. Each paw was evaluated with a visual score (0-3) • 0: normal, no joint inflammation • 1: large joint inflammation • 2: medium joint inflammation • 3: small joint (distal) inflammation
A set of 4 values were recorded on each evaluation day. The 4 values were summed for analysis.
Right and left knees diameter were measured using a digital caliper.
Animals were euthanized 21 or 28 days after injection (D0). They were anesthetized with a subcutaneous injection of a Ketamin/Medetomidine mix and further euthanized by exsanguination.
Both entire knees from each animal were processed for histological analysis, They were decalcified in a HCl/EDTA mix (DC2, Qpath, VWR Belgium) for the appropriate time before inclusion in paraffin. Three frontal sections (5 μm) of each compartment were done 200 μm apart in the weight bearing zone using a microtome. Slides were stained according to a standard Safranin-O/Fast green protocol.
Slides were evaluated under a light microscope. Each slide was score for: • Infiltration of inflammatory cells in synovial tissue (0-3) • Inflammatory cells in the joint cavity (exudate) (0-3) • Cartilage proteoglycan depletion (0-3) • Loss of articular cartilage (0-3) • Bone erosion (0-3).
Infiltration of inflammatory cells in synovial tissue and inflammatory cells in the joint cavity were considered together (sum of the scores) as inflammatory parameters for the analysis of the detailed criteria.
Statistical analysis was performed with the appropriate test using GraphPad. • Visual score and evaluations (knee diameter measurements) were analyzed with a two way ANOVA followed, if positive, by Tukey's multiple comparison test. Graphs represented the mean of each group at each evaluated time point. • Histological scores were analyzed with a Kruskal Wallis for non-parametric values followed, if positive, by a Dunn's multiple comparison test. Graphs presented as box and whisker plots. Exact p values were provided and asterisks representation were also performed.

HRGYPGLDG [Coll2-1]
intracellular production of H2O2 ([1]; Coll2-1 at 4.5 nmol, 24 hours): significantly increased
H2O2 production ([1]; increasing doses of Coll2-1 peptide): increase
inflammatory criteria (histology) (female Lewis rats; Coll2-1 20 μg S.C. (Gr4), 028): Significant increase
cartilage degradation criteria (female Lewis rats; Coll2-1 20 μg S.C. (Gr4), D28): Significant increase
loss of matrix proteoglycan (female Lewis rats; Coll2-1 20 μg S.C. (Gr4), D28): Significant increase
subchondral bone modification score (female Lewis rats; Coll2-1 20 μg S.C. (Gr4), D28): Significant increase
arthritis visual score, difference versus bovine type II collagen (Group 1) (female Lewis rats; Coll2-1 20 μg S.C. (Group 4), D21): statistically different
global histological score, right and left knees together, versus saline (Group 7) (female Lewis rats; Coll2-1 20 μg S.C. (Group 4), D28): significant increase
arthritis visual score, difference versus saline (Group 7) (female Lewis rats; Coll2-1 20 μg/100 μl S.C. (Group 4)): statistically significant
inflammatory criteria (histology) (female Lewis rats; Coll2-1 200 μg S.C. (Gr3), D21): Significant increase
subchondral bone modification score (female Lewis rats; Coll2-1 200 μg S.C. (Gr3), D21): Significant increase
cartilage degradation criteria (female Lewis rats; Coll2-1 200 μg S.C. (Gr3), D28): Significant increase
loss of matrix proteoglycan (female Lewis rats; Coll2-1 200 μg S.C. (Gr3), D28): Significant increase
global histological score, right and left knees together, versus saline (Group 7) (female Lewis rats; Coll2-1 200 μg S.C. (Group 3), D21): significant increase
arthritis visual score, difference versus saline (Group 7) (female Lewis rats; Coll2-1 200 μg/100 μl S.C. (Group 3)): statistically significant
histological score (conclusion) (female Lewis rats; collagen arthritis model, S.C. injection): increase
arthritis visual score (female Lewis rats; single S.C. injection at the base of the tail, four limbs, D0 to D28): induced an increase
